The text below walks through data of PMC12169663, “Deciphering the Tumor Uptake of Heterobivalent (SST2/Albumin) [^64Cu]Cu-NODAGA-cLAB-TATEs” (Journal of Medicinal Chemistry, 2025).

pIC50, pKd: −log10 of the molar value. Read-outs that look alike come from different tables or passages of the source.

One may read the logD as lipophilicity at a set pH, counting ionised and neutral species. What is called pIC50 is the IC50 on a negative log10 scale, so that one unit is a factor of ten.

The nature of one data set: in vivo. The settings on record: female, NMRI-nu/nu (Rj:NMRI-Foxn1nu/nu), mouse, iv, total radioactivity.
Data set [1] deals with T1, human serum albumin (HSA) (Homo sapiens, UniProt P02768).
Description: (§2) The ultrafiltration assay used to quantify the binding of the ^64Cu-labeled peptides to HSA was performed as previously described for NODAGA-cLAB-TATEs. , Briefly, a constant activity amount of the radioligands (10–15 MBq) were mixed with different HSA concentrations (200 nM–1.4 mM). Aliquots were loaded into the ultrafiltration devices (4104 centrifugal filter units by Millipore; 30 000 Da nominal molecular weight limit, methylcellulose micropartition membranes) and centrifuged. After centrifugation, aliquots from the top and bottom fractions were measured in a γ-counter (PerkinElmer, Wizard^2 2480 automatic gamma counter). The retained fraction was calculated as a quotient of these measurements. The dissociation constant, K d, was calculated using the Morrison equation.
The target of the next data set is HSA (Homo sapiens, UniProt P02768). Kind of data set: Kd[HSA] from SST2 saturation binding in presence of HSA, nonlinear regression with model of Blakeley et al. The text has this: Blakeley et al. developed a mathematical model that includes radioligand, protein (herein HSA), and target receptor (herein SST2) to derive the K d[HSA] value of the radioligand from saturation binding experiments to the target receptor in the presence of HSA. The authors specified an explicit mathematical solution for their proposed cubic equation and provided this solution also in a practical format for GraphPad Prism, which allows the analysis of experimental data but also simulations.

On the set-up of data set [2]: method as in not given. As to conditions: previously characterized; ref not given; cited from earlier work.
Data set [3] addresses T1, human serum albumin (HSA). Kind of data set: Radiometric ultrafiltration assay for binding to HSA.
Description: as §2
Data set [4] is described as follows: Small-animal PET imaging in subcutaneous MPC tumor allograft model. The settings on record: female, NMRI-nu/nu (Rj:NMRI-Foxn1nu/nu), mouse, tumor, iv, total radioactivity.
Description: (§3) The biodistribution of [ ^ 64 Cu]­Cu-NODAGA-cLAB­(5/6)-TATE, [ ^ 64 Cu]­Cu-NODAGA-cLAB4- scr TATE, and [ ^ 64 Cu]­Cu-DOTA-EB-TATE was assessed in a subcutaneous MPC tumor allograft model via small-animal PET imaging (Figure A–D). The time-activity curves (TACs) for tumor, kidneys, and heart are shown in Figure A–D (for TACs of muscle and liver, see Figure S6) and the calculated areas under curves (AUC0–48h) and tumor-to-tissue ratios are graphically summarized in Figure E,F, respectively.
(§4) (A–D) Time-activity curves (SUV, decay-corrected, as a function of time up to 48 h) obtained by PET acquisition are depicted (0–2 h in dynamic mode and time points 5, 24, and 48 h p.i.; the x-axes are segmented accordingly). Data shown are mean values (±SD) of a group of MPC tumor-bearing NMRI-nu/nu mice (n = 2, but for cLAB6-TATE n = 4). […] (E) Calculated AUC0–48h values. Data shown are mean values (±SD). (F) Tumor/organ ratios based in the AUC0–48h values.
(§5) A number of 4 × 10^6 MPC cells were resuspended in 40 μL of Dulbecco’s phosphate-buffered saline and injected subcutaneously into the shoulder of 7–10-week-old female nude mice (Rj:NMRI-Foxn1^nu/nu, Janvier Laboratories, Le Genest-Saint-Isle, France). General anesthesia was induced and maintained with inhalation of 10% (v/v) desflurane in 30% oxygen/air (v/v). Tumor growth was monitored using caliper measurements. Animals were sacrificed using CO2 inhalation and cervical dislocation. When diameters of MPC tumors reached 8 ± 3 mm (volumes of 65–282 mm^3), small-animal positron emission tomography (PET) was performed using the nanoScan PET/CT (Mediso Medical Imaging Systems, Budapest, Hungary) and Si78 PET/CT (BRUKER, Billerica, MA) instruments. Scanners were cross-calibrated using a syringe source containing 10 MBq of [^64Cu]­CuCl2 diluted in 2 mL of 0.01 M HCl. Each mouse (n = 2) received between 7 and 10 MBq of the respective radioligand (A m = 40 GBq/μmoL) delivered in 0.154 M NaCl via intravenous injection through a tail vein catheter within the initial 30 s after scan start. […] Standardized uptake values (SUV = [MBq detected activity/mL tissue]/[MBq injected activity/g body weight]) were determined in defined volumes of interest (VOIs) and reported as VOI-averaged SUVmean ± range [min–max]. Assuming a density of 1 g/mL for body tissues, the SUVs become dimensionless.
In data set [5] the test system is MPC tumor-bearing NMRI-nu/nu mice. Described as above. As to conditions: PET, i.v., 7–10 MBq/animal.
Description: as §3, §4, §5
The nature of data set [6]: Plasma stability assay, human plasma. Type of data set: in vitro ADME. As to conditions: 37 °C, up to 24 h, single experiment, read-out: t1/2 (plasma), human. The text has this:
Previously, we discovered that the ^64Cu-labeled NODAGA-cLAB-TATEs with a primary amide functionality within the albumin-binding moiety are subject to a metabolic transformation in mouse plasma. In fact, the primary amide is slowly hydrolyzed to the carboxylic acid, which turned out to be catalyzed by plasma carboxylesterases as proven by blocking this transformation in the presence of bis-para-nitrophenylphosphate. […] As this transformation entails also an increase in the binding affinity to albumin, there might be effects on the biodistribution in mice, in particular the blood circulation time. To investigate this, NODAGA-cLAB6-TATE was designed, with cLAB6 (N3Bz-D-Lys(MPB)-NH2) representing the D-configured pendant of cLAB4 (N3Bz-L-Lys(MPB)-NH2). […] However, the apparent half-lives for both compounds (≈13 and >24 h) are longer compared to the half-lives previously determined for [ ^ 64 Cu]-Cu-NODAGA-cLAB3-TATE and [ ^ 64 Cu]-Cu-NODAGA-cLAB4-TATE (≈6 and ≈3 h, respectively). […]
(§1) Plasma stability of the radioligands was done as previously described for NODAGA-cLAB-TATE and NODAGA-NES-TATEs. , Briefly, an aliquot of the radioligand was added to plasma and stability was assessed at different time points by withdrawing an aliquot, followed by protein precipitation and analysis by radio-HPLC.

In another data set the test system is MPC cells. Kind of data set: Cell binding and uptake (internalization) in MPC cells. The class given is cell-based, mouse. The procedure: Furthermore, the receptor-mediated endocytosis (referred to as internalization) of the novel compounds was assessed. The values for the internalized fraction (or “acid wash” resistant fraction) were >50% (Figure S5), which might indicate a similar pharmacological behavior of these ligands upon binding to SST2 as the parent ligand TATE.
Cell binding and uptake were measured as previously described. , MPC cells were seeded into collagen-coated 24-well microplates and cultivated for 4 days. All washing steps were performed using PBS containing 0.9 mM CaCl2 and 0.5 mM MgCl2. Total radioligand uptake was measured after incubation with the radioligand (A m = 30 GBq/μmol) at a final concentration of 20 nM in RPMI 1640 medium with GlutaMAX supplement (Thermo Fisher Scientific) for 1 h at 37 and 4 °C. Nonspecific binding was determined in the presence of 20 μM Acetyl-TATE. The uptake fraction was measured after acid wash of cell surface-bound radioligand with wash buffer containing 0.05 M glycine, pH 2.8, for 5 min. The activity of cell homogenates was measured using the γ counter Wizard (PerkinElmer). The protein content of cell homogenates was measured as described above.
Figure S5: Cell binding data
Data shown in A and B are mean values (±SD) of one experiment (NODAGA-cLAB(5/6)- TATE and NODAGA-cLAB4-scrTATE) or 3 experiments (±SEM, DOTA-EB-TATE), which were performed in sextuplicate. In C, the amount of specific “internalized” (acid resistant) radioligand (red bars in A, mean values) is expressed as percentage of specific total -bound radioligand (blue bars in A, mean values). The difference to 100% was assigned to “surface - bound” radioligand. For a better overview, the compound names were abbreviated. […]
specific binding of radioligand
Incubation at 37°C for 1 h
(% dose/mg of protein) Washing with
Incubation at 4°C for 1 h […]
(1 picture or pasted object on this page, not shown here)

Data set [7] is described as follows: n-Octanol/PBS distribution coefficient (log D7.4).
Description: The log D7.4 values of the ^64Cu-labeled peptides were determined with the octanol partitioning method.
The determination of the log D7.4 value was done in triplicate as previously described. , Briefly, a sample of the radioligand was added to the 1:1 mixture of PBS/n-octanol. The radioactivity in a defined volume of each layer was measured (ISOMED 2100). The distribution coefficient was expressed as the logarithm of the ratio of counts per minute (cpm) measured in the n-octanol phase to the cpm measured in the PBS phase.
The nature of data set [8]: Plasma stability assay, mouse plasma. The class given is in vitro ADME.
Description: Previously, we discovered that the ^64Cu-labeled NODAGA-cLAB-TATEs with a primary amide functionality within the albumin-binding moiety are subject to a metabolic transformation in mouse plasma. In fact, the primary amide is slowly hydrolyzed to the carboxylic acid, which turned out to be catalyzed by plasma carboxylesterases as proven by blocking this transformation in the presence of bis-para-nitrophenylphosphate. […] As this transformation entails also an increase in the binding affinity to albumin, there might be effects on the biodistribution in mice, in particular the blood circulation time. To investigate this, NODAGA-cLAB6-TATE was designed, with cLAB6 (N3Bz-D-Lys(MPB)-NH2) representing the D-configured pendant of cLAB4 (N3Bz-L-Lys(MPB)-NH2). […] However, the apparent half-lives for both compounds (≈13 and >24 h) are longer compared to the half-lives previously determined for [ ^ 64 Cu]-Cu-NODAGA-cLAB3-TATE and [ ^ 64 Cu]-Cu-NODAGA-cLAB4-TATE (≈6 and ≈3 h, respectively). For better comparability, the stability of [ ^ 64 Cu]-Cu-NODAGA-cLAB4-TATE was again examined with the same mouse plasma batch used for [ ^ 64 Cu]-Cu-NODAGA-cLAB5-TATE and [ ^ 64 Cu]-Cu-NODAGA-cLAB4- scr TATE. […] Therefore, the discrepancy with our previously reported stability data in mouse plasma might result from differences in the activity of plasma carboxylesterases in the obtained mouse plasma. However, the rate of amide hydrolysis is indeed lower for [ ^ 64 Cu]-Cu-NODAGA-cLAB4- scr TATE, independent of the mouse plasma batch, which might indicate that the actual amino acid sequence in these peptides affects the recognition by the plasma carboxylesterases.
2 Stability of the ^64Cu-labeled TATE derivatives in mouse plasma. (A) Radio-HPLC chromatograms of [^64Cu]-Cu-NODAGA-cLAB5-TATE (red), [^64Cu]-Cu-NODAGA-cLAB6-TATE (green), and [^64Cu]-Cu-NODAGA-cLAB- scr TATE (blue) after ^64Cu-labeling and incubation in mouse plasma for 24 h show the transformation of [^64Cu]-Cu-NODAGA-cLAB5-TATE and [^64Cu]-Cu-NODAGA-cLAB4- scr TATE into a metabolite of higher retention time (see the Discussion for explanation). (B) Plot of residual intact radioligands upon incubation with mouse plasma including nonlinear regression (black line) according to one-phase decay for [^64Cu]-Cu-NODAGA-cLAB5-TATE (red circles). The dotted lines represent fractions of 0.5 and 0.9. Data shown are mean values (±SD) from 1 to 3 experiments (each experiment was performed in single execution). […]
as §1

The test system of data set [9] is SST2-transfected HTC116 cells. On the set-up: method as in not given. The settings on record: nonlabeled ligands, ref not given; cited from earlier work.
The test system of another data set is intact AR42J cells. On the set-up: method as in not given. As to conditions: nonlabeled ligands, ref not given; cited from earlier work.

Sequence of HSA (P02768 25-609): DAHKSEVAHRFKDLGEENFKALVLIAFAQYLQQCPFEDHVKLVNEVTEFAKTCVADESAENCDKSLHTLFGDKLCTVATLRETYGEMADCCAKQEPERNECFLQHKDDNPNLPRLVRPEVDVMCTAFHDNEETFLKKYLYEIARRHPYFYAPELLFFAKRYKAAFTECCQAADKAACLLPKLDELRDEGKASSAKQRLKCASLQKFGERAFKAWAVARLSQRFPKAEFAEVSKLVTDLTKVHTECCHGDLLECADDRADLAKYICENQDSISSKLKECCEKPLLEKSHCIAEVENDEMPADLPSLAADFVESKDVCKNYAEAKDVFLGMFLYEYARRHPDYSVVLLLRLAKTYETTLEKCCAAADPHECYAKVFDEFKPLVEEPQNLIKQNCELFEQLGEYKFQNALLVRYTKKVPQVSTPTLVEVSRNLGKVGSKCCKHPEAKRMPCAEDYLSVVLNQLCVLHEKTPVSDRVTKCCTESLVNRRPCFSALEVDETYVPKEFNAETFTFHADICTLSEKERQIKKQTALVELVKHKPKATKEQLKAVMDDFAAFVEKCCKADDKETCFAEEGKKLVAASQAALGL
T1 sequence (P02768 25-609): as above
Description for in vivo: as §3, §4, §5

In the case of `Cc1cc(-c2ccc(NC(=O)[C@H](CCCCNC(=O)CCN3C(=O)CC(SCCC(=O)N[C@H](Cc4ccccc4)C(=O)N[C@H]4CSSC[C@@H](C(=O)N[C@H](C(=O)O)[C@@H](C)O)NC(=O)[C@H]([C@@H](C)O)NC(=O)[C@H](CCCCN)NC(=O)[C@@H](Cc5c[nH]c6ccccc56)NC(=O)[C@H](Cc5ccc(O)cc5)NC4=O)C3=O)NC(=O)CN3CCN(CC(=O)O)CCN(CC(=O)O)CCN(CC(=O)O)CC3)c(C)c2)ccc1/N=N/c1ccc2c(S(=O)(=O)O)cc(S(=O)(=O)O)c(N)c2c1O` (some centres unmarked) [[64Cu]Cu-DOTA-EB-TATE, metal not drawn], the logD is -2.26. Further, in the data set “in vivo”, the SUV at 24 h was 6 SUV, the SUV at 48 h worked out at 5.6 SUV and the SUV at 72 h was 5.6 SUV. Further, in data set [1], the pKd is 5.92.
In the case of `C[C@@H](O)[C@H](NC(=O)[C@@H]1CSSC[C@H](NC(=O)[C@@H](Cc2ccccc2)NC(=O)CC[C@H](C(=O)O)N2CCN(CC(=O)O)CCN(CC(=O)O)CC2)C(=O)N[C@@H](Cc2ccc(O)cc2)C(=O)N[C@H](Cc2c[nH]c3ccccc23)C(=O)N[C@@H](CCCCN)C(=O)N[C@@H]([C@@H](C)O)C(=O)N1)C(=O)O` [[64Cu]Cu-NODAGA-TATE, metal not drawn], the pKd is 3.97 to 5.41 at HSA (1–100 μM HSA, read-out: Kd[HSA] derived from saturation binding, range over the HSA concentrations); 5.25 at HSA ([HSA] 1 μM, read-out: Kd[HSA] derived from saturation binding); 5.40 on HSA ([HSA] 5 μM, read-out: Kd[HSA] derived from saturation binding); 5.41 on HSA ([HSA] 20 μM, read-out: Kd[HSA] derived from saturation binding); 4.78 on HSA ([HSA] 40 μM, read-out: Kd[HSA] derived from saturation binding); 3.97 on HSA ([HSA] 100 μM, read-out: Kd[HSA] derived from saturation binding). The “log D7.4” value in data set [2] was −3.43.
Take `C[C@@H](O)[C@H](NC(=O)[C@@H]1CSSC[C@H](NC(=O)[C@@H](Cc2ccccc2)NC(=O)COCCOCCNC(=O)[C@H](Cc2cn(-c3ccc(C(=O)N[C@@H](CCCCNC(=O)CCCc4ccc(F)cc4)C(N)=O)cc3)nn2)NC(=O)CC[C@H](C(=O)O)N2CCN(CC(=O)O)CCN(CC(=O)O)CC2)C(=O)N[C@@H](Cc2ccc(O)cc2)C(=O)N[C@H](Cc2c[nH]c3ccccc23)C(=O)N[C@@H](CCCCN)C(=O)N[C@@H]([C@@H](C)O)C(=O)N1)C(=O)O` [[64Cu]Cu-NODAGA-cLAB5-TATE, metal not drawn]: the pKd in data set [3] was 3.36. Also, in data set [4], the SUV turned out to be 8.9 SUV, the SUV at 2 h stood at 7.9 SUV, the SUV at 4 h came to 4.9 SUV and the SUV at 24 h came to 2.3 SUV. In addition, in data set [5], the AUC0-48h heart was 5.98 SUVmean*h, the AUC0-48h kidney was determined as 32.36 SUVmean*h, the AUC0-48h liver was found to be 22.25 SUVmean*h and the AUC0-48h tumor came to 148 SUVmean*h. The AUC0-48h tumor in data set [5] (listed as cLAB5) came out at 148.10 SUVmean*h. Also, the half-life in [6] is more than 24 h. In the data set on MPC cells (incubation at 4 °C for 1 h, washing with PBS pH 7.4, 20 nM), the “specific binding of radioligand” value was 0.94 % dose/mg of protein. The “specific binding of radioligand” value in the data set with MPC cells (incubation at 4 °C for 1 h, washing with glycine buffer pH 2.8, 20 nM) is given as 0.30 % dose/mg of protein. The “specific binding of radioligand” value in the data set with MPC cells (incubation at 37 °C for 1 h, washing with PBS pH 7.4 (total bound), 20 nM) is listed as 5.74 %dose/mg of protein. The “specific binding of radioligand” value in the data set on MPC cells (incubation at 37 °C for 1 h, washing with glycine buffer pH 2.8 (acid resistant), 20 nM) was 3.34 %dose/mg of protein. This molecule also had a logD in data set [7] of -2.27. Moreover, in data set [8] (37 °C, up to 24 h, single experiment, read-out: t1/2 (plasma), mouse), the half-life was approximately 13 h. Besides, in data set [8] (24 h, radio-HPLC), the “hydrolysis of the primary amide in mouse plasma” value is “hydrolyzed”.
With DOTA-TATE, the pIC50 is 7.99 in data set [9] and 8.46 with intact AR42J cells.
